Test results from patent US4965352A, “Anthracycline derivatives having cytostatic activity” (Behringwerke Aktiengesellschaft, priority 1986, dated 1990).
Converted amounts (≈) assume the structure as drawn.

What was measured:
[1] = tested on: mouse L1210 leukemia cells; test: Formation of L1210 leukemia cell colonies in soft agar; assay type: cell-based; conditions: for IC50: Mus musculus, L1210, 168 h, read-out: Cytotoxicity (continuous incubation) IC50; for cytostatic activity compared with adriamycin: result in words, test not named
Experimental: The cytostatic activity of the compounds according to the invention has been tested using mouse L1210 leukemia cells. Use was made for this of the formation of L1210 leukemia cell colonies in soft agar. This method is used to detect the effect of the test substances on the growth behavior of the cells over several generations. In this connection, with a cell cycle time of 10 to 12 hours, about 14 consecutive generations are observed in the 7-day duration of the test. In this test, the substances having cytostatic activity according to the invention bring about a reduction, compared with an untreated control sample, in the number of colonies which is to be observed.
500 leukemia cells per plate were incubated with various concentrations of the test substance at 37° C. for 1 hour. The cells were then washed twice with McCoy 5A medium, 0.3% agar was added, and finally the mixture was poured into Petri dishes. Controls were incubated only with fresh medium. In place of the incubation for one hour, in some cases various concentrations and test substances were mixed with the upper agar layer in order in this way to achieve continuous exposure of the cells throughout the incubation time. After the agar had solidified, the plates were incubated in an incubator at 37° C. for 7 days (5% by volume CO2, 95% relative atmospheric humidity). Thereafter the number of colonies with a diameter of more than 60μ which had formed was counted. The results have been stated as the number of colonies in treated agar plates as a percentage of the untreated control. The dose-effect graph obtained in this way was used to determine the IC50 as a measure of the activity of the substance. The results for the compounds described here are compiled in Table 1, comparing with adriamycin.

[2] = Acute toxicity in NMRI mice after intravenous injection; conditions: mouse, in vivo, survival on day 14, Litchfield-Wilcoxon
Experimental: Details of the test method are evident from the procecdure for determining the formation of colonies given herein after. Appropriate tests on NMRI mice were carried out to determine the acute toxicity of the anthracycline derivatives according to the invention. Details of the test method are evident from the procedure for determining the acute toxicity given hereinafter.
Determination of the acute toxicity entailed intravenous injection of various doses of the test substance, disolved in 0.5 ml of physiological saline solution, in NMRI mice on day 0. Control groups received only 0.5 ml of physiological saline solution. 5 mice were used for each concentration of the test substance. The number of surviving mice was determined on day 14, and the LD50 was determined therefrom by the Litchfield-Wilcoxon method. The toxicity of the compounds described here is compiled in Table 1, comparing with adriamycin.

SMILES	IC50 [1]	LD50 at 336 h [2]	cytostatic activity compared with adriamycin [1]
CC[C@@]1(O)C[C@H](O[C@H]2C[C@H](NC(=O)C(F)(F)F)[C@H](O)[C@H](C)O2)c2c(O)c3c(c(O)c2[C@H]1C(=O)OC)C(=O)c1c(O)ccc(O)c1C3=O [Compound 5, 7-O-(3'-N-trifluoroacetyl-α-L-daunosaminyl)-ε-isorhodomycinone]	0.4 µg/mL (≈ 0.597 µM)		
CC[C@@]1(O)C[C@H](O[C@H]2C[C@H](N(C)C)[C@H](OC(C)=O)[C@H](C)O2)c2c(O)c3c(c(O)c2[C@H]1C(=O)OC)C(=O)c1c(O)ccc(O)c1C3=O [Compound 1, 7-O-(4'-O-acetyl--L-rhodosaminyl)-ε-isorhodomycinone]	0.028 µg/mL (≈ 0.0435 µM)	89 mg/kg	comparable with that of adriamycin
CC[C@@]1(O)C[C@H](O[C@H]2C[C@H](N(C)C)[C@H](O)[C@H](C)O2)c2c(O)c3c(c(O)c2[C@H]1C(=O)OC)C(=O)c1c(O)ccc(O)c1C3=O [Compound 2, 7-O-(α-L-rhodosaminyl)-ε-isorhodomycinone]	0.035 µg/mL (≈ 0.0582 µM)	50 to 100 mg/kg	comparable with that of adriamycin
CC[C@@]1(O)C[C@H](O[C@H]2C[C@H](NC)[C@H](O)[C@H](C)O2)c2c(O)c3c(c(O)c2[C@H]1C(=O)OC)C(=O)c1c(O)ccc(O)c1C3=O [Compound 9, 7-O-(3'-N-methyl--L-daunosaminyl)-ε-isorhodomycinone]	0.028 µg/mL (≈ 0.0477 µM)		
CC[C@@]1(O)C[C@H](O[C@H]2C[C@H](NC)[C@H](OC(C)=O)[C@H](C)O2)c2c(O)c3c(c(O)c2[C@H]1C(=O)OC)C(=O)c1c(O)ccc(O)c1C3=O [Compound 8, 7-O-(4'-O-acetyl-3'-N-methyl-α-L-daunosaminyl)-ε-isorhodomycinone]	0.1 µg/mL (≈ 0.159 µM)		
COc1cccc2c1C(=O)c1c(O)c3c(c(O)c1C2=O)C[C@@](O)(C(=O)CO)C[C@@H]3O[C@H]1C[C@H](N)[C@H](O)[C@H](C)O1 [Adriamycin, reference compound]	0.02 µg/mL (≈ 0.0368 µM)	26.5 mg/kg	
